According to patent US20170305984A1, “STATHERIN PEPTIDES” (THE UNIVERSITY OF WESTERN ONTARIO, priority 2014, published 2017):
“Also recorded” adds a separate entry of the source. Marks after values point to notes of the source that are not given here. Square brackets hold non-standard residues; d marks the D form. Ends that are not written are not given here. pS = N[C@@H](COP(=O)(O)O)C(=O)O

Key:
[1] = Chitosan encapsulation rate, ELISA of remaining unencapsulated protein or peptide; type: physicochemical; conditions: encapsulation in chitosan nanoparticles
Text: Based on the optimized parameters for construction of chitosan micro- and nanoparticles, AEP was mixed directly with the chitosan solution. Chitosan micro- and nanoparticles were constructed, as described above, and the particles were characterized through Zeta sizing and SEM. Reverse Phase-High Performance Liquid Chromatography (RP-HPLC) and/or enzyme-linked immunosorbent assay (ELISA) was used to determine the degree of encapsulation by measuring the amount of free peptides, before and after the encapsulation procedure. Chitosan encapsulation of histatin 5, DR-9, RR-14 and bovine serum albumin was carried out to determine the chitosan encapsulation rate. ELISA assay assessed the remaining unencapsulated protein or peptide.

[2] = Enamel demineralization protection by constructed peptides: calcium and phosphate released from enamel (Example 1); design: species or system human; conditions: for Mean Ca Conc. (calcium released from human enamel) / Mean PO4 Conc. (phosphate released from human enamel): 1 mg/mL peptide 2 hours 37° C., then demineralization solution pH 4.5, 37° C., 12 days, mean ± SD; for Enamel demineralization protection / mineral loss (in words): versus distilled water control and other groups, ANOVA, Tukey
Text: Enamel sample preparation was done as previously described (Siqueira et. al. 2010, J Dent Res. 2010; 89: 626-630, the relevant contents of which are incorporated herein by reference). Briefly, human permanent first molars without defects were cleaned, rinsed, and sectioned. After having the roots removed, the crowns were sliced sagittally into 4 sections (each with a 300 μm thickness) using a diamond saw, followed by grinding to a thickness of 150 μm using sandpaper. Each specimen was coated with a layer of light-cured dental adhesive (3M ESPE Scotchbond™ Universal) and nail varnish, excluding an untouched 2 mm window on the natural surface enamel. Each specimen was submerged in 1 mg/mL construct peptide solution or distilled water (control group) and incubated for 2 hours at 37° C. After this period, the samples were then submerged in 1 mL of demineralization solution (0.05M acetic acid; 2.2 mM CaCl2; 2.2 mM NaH2PO4; pH 4.5) at 37° C. for 12 days. Afterward, they were rinsed thoroughly with distilled water and dried with filter paper to remove any remaining acid residue. The remaining 1 mL of acidic solution was used to assess the calcium and phosphate concentration released from enamel during the demineralization process. The calcium concentration of the solution was assessed using a quantitative colorimetric calcium determination assay (QuantiChrom™ Calcium Assay Kit, Bioassay Systems, Hayward, Calif., USA) with a UV-visible spectrophotometer to determine the optical density at a wavelength of 612 nm. The phosphate concentration was assessed using a colorimetric assay (PiColorLock™ Gold Detection System, Innova Biosciences, Cambridge, U.K.) and UV-visible spectrophotometer, to determine the optical density at a wavelength of 635 nm. All samples were analyzed in duplicate. Statistical analysis was performed with ANOVA and the Tukey Range Test.

[3] = Enamel demineralization with chitosan nanoparticle coatings: calcium and phosphate released from enamel (Table 3); design: species or system human; conditions: for demineralization / acid protection (in words): coated enamel vs not coated control, pH 4.5, 12 days
Description: Demineralization studies are conducted using thin sections of human enamel. Enamel minerals were analyzed using microradiography. To determine the influence of selected chitosan encapsulated salivary proteins on enamel demineralization, resin-coated enamel sections were first exposed to solutions containing chitosan encapsulated salivary proteins at a concentration of 1.0 mg/ml for 2 h at 37° C. To mimic the acidic environment of dental caries, chitosan encapsulated salivary proteins and control sections were placed into individual tubes with 3 ml of a demineralization solution containing 2.2 mM CaCl2, 2.2 mM NaH2PO4, 5 mM acetic acid, a pH 4.5. The sample was incubated at 37° C. with gentle agitation for a period of 12 days. All solutions contained 3 mM sodium azide as a bacteriostatic agent. Immediately after the demineralization period, the specimens were extensively washed with distilled water and dried with filter paper. Mineral loss was evaluated by comparing the microradiography taken before and after exposure to the acidic conditions. Enamel pieces were prepared as described and coated with chitosan nanoparticles, DR-9 encapsulated in chitosan nanoparticles, DR-9, and 0.05% NaF (gold standard group). In some groups, parotid saliva was allowed to adsorb first on enamel species to mimic the AEP (Table 3). Adsorption was allowed to proceed for a period of 2 hours at 37° C. with gentle agitation. Enamel specimens were then washed with distilled water and immersed in a demineralization solution, pH 4.5 for 12 days. This solution was used to measure the amount of calcium and phosphate released from enamel.

[4] = Inhibition of spontaneous precipitation of supersaturated calcium phosphate solutions (Alizarin Red S, 570 nm); conditions: all test concentrations, compared to a group without any inhibitor; FIG. 4
Description: To investigate the ability of the chitosan encapsulated AEP proteins/peptides to prevent crystal growth, microtiter plates were coated with proteins/peptides in a HEPES buffer at RT for 1 h. The wells were washed followed by the addition of a solution containing phosphate (15 mM; pH 7.4), NaCl (150 mM) and CaCl2 (50 mM). The solutions were incubated for 4 h at room temperature, allowing the formation of hydroxyapatite crystals. After this period, the solution was removed, 5% Alizarin Red S (pH 4.2), was added, followed by cerylpyridinium chloride. Crystal production was analyzed spectrophotometrically at 570 nm.

[5] = all studied concentrations, compared to other native statherin peptides; p<0.05; cited from earlier work
[6] = adsorbed for 2 hrs at 37° C., demineralization solution pH 4.5 for 12 days, n = 10

| Compound | Encapsulation Efficiency [1] | Mean Ca Conc. (calcium released from human enamel) [2] | Mean PO4 Conc. (phosphate released from human enamel) [2] | Enamel demineralization protection / mineral loss (in words) [2] | further results |
| --- | --- | --- | --- | --- | --- |
| RKFHEKHHSHRGYR [RR-14] | 93.1% |  |  |  |  |
| DSpSpEEKFLRVPAGLRKFHEKHHSHRGYR (D[pS][pS]EEKFLRVPAGLRKFHEKHHSHRGYR) [DR9-VPAGL-RR14] |  | 4.755 ± 1.35^A mM | 3.917 ± 0.82^A mM | did not provide any increased demineralization protection over the control |  |
| Bovine Serum Albumin: model protein for chitosan encapsulation | 88.3% |  |  |  |  |
| DSpSpEEKFLRRKFHEKHHSHRGYR (D[pS][pS]EEKFLRRKFHEKHHSHRGYR) [DR9-RR14] |  | 3.132 ± 2.46^B mM | 2.282 ± 2.01^B mM | intermediate value among the groups; also recorded: able to maintain the biological function of one of the precursor proteins, statherin |  |
| DSpSpEEKFLRRIGRFGYGYGPYQPVPEQPLYPQPYQPQYQQYTF (D[pS][pS]EEKFLRRIGRFGYGYGPYQPVPEQPLYPQPYQPQYQQYTF) [Statherin] |  | 1.117 ± 1.29^B, C mM | 0.681 ± 1.11^B, C mM |  |  |
| [F-].[Na+] [NaF] |  |  |  |  | Calcium released from enamel [3, 6]: 0.30 ± 0.13 ^b mM; Phosphate released from enamel [3, 6]: 0.17 ± 0.06 ^b mM; demineralization / acid protection (in words) [3]: better acid protection |
| DSpSpEEKFLR (D[pS][pS]EEKFLR) [DR9] | 75.5% | 1.455 ± 2.13^B, C mM | 0.849 ± 1.80^B, C mM |  | inhibition of calcium phosphate crystal growth [4]: statistically significant inhibition of calcium phosphate crystal growth; hydroxyapatite growth inhibition [5]: significant effect; demineralization / acid protection (in words) [3]: intermediary level of demineralization protection |
| Histatin 5 | 82.9% |  |  |  |  |
| DSpSpEEKFLRVPLSLRKFHEKHHSHRGYR (D[pS][pS]EEKFLRVPLSLRKFHEKHHSHRGYR) [DR9-VPLSL-RR14] |  | 4.106 ± 2.13^A mM | 3.159 ± 1.85^A mM | did not provide any increased demineralization protection over the control |  |
| DSpSpEEKFLRDSpSpEEKFLR (D[pS][pS]EEKFLRD[pS][pS]EEKFLR) [DR9-DR9] |  | 0.581 ± 0.16^C mM | 0.514 ± 0.18^C mM | lowest mineral loss; also recorded: amplified by DR9-DR9 when compared to single DR9 or statherin |  |
